Patent US9636377B2, “Compositions and methods for the treatment of retinal degeneration” (UNIVERSITE DE STRASBOURG, priority 2012, dated 2017)

Experiments:
[1] = tested on: Bbs12 depleted retinal explants (photoreceptor apoptosis, ONL); experiment: TUNEL assay, apoptotic rate of photoreceptors in shRNA-treated retinal explants; format: cell-based, mouse; conditions: for apoptotic rate (proportion of apoptotic photoreceptor nucleus): shBbs12 explants, single treatments 2 mM VPA, 25 μM GBZ, 10 μM INH, 33% without treatment
Description: Wild-type animals were on a C57BL/6 background. The retinal explant culture procedure was carried out as previously described (Reidel et al., 2006). Briefly, 15-day-old mice were sacrificed by decapitation and eyes were removed and incubated in trypsin (catalog #25200-072, Gibco, Invitrogen, Paris, France) for 10 min at 37° C. Digestion was stopped by transferring eyes in DMEM+10% fetal bovine serum (catalog #31885-023 and 10500-064, Gibco) and incubation for 10 min at 4° C. Eyes were dissected in Ame's medium (catalog#15230-097, Gibco) supplemented with 6.5 g/L glucose. First, the sclera was carefully removed, leaving the retinal pigmented epithelium (RPE) attached to the eyeball. Incisions were made at the edge of the cornea to remove the cornea, lens and hyaloid body. Then four radial incisions were made in the retina to obtain a cross shape. Retinas were transferred on a nitrocellulose culture membrane (catalog # PICMORG50, Millipore, Molsheim, France) with RPE side down and cultivated in Neurobasal A medium (catalog #108888-022, Gibco) supplemented with B27 supplement (catalog #17504-044, Gibco), L-glutamine (catalog #35050-061, Gibco) and penicillin/streptomycin (catalog #15240; Gibco). Explants were maintained at 37° C. humidified 5% CO2. Specific gene silencing using lentiviruses carrying shRNA sequences for Bbs12, Perk, Hri or Rhodopsin (Santa Cruz Biotechnology, Tebu Bio, Yvelines, France) were performed by adding 20 μl of viral suspension (1×10^5 infectious units) in the culture medium overnight before whole medium change. The infected explants were then cultured for 3 days with a half medium change on a daily basis. Explants were not maintained longer in culture to avoid unspecific apoptosis in the different retinal layers. […] Drugs were added simultaneously with viral infection to the culture medium.
For immunofluorescence experiments and TUNEL assay retinal explants were fixed directly on membranes with Formalin 10% for 1 hour at 4° C. Sucrose impregnation was then performed using 10%, 20% and 30% sucrose baths, 20 min each. Explants were transferred to OCT (catalog #4583, Tissue-Tek, Sakura, Villeneuve d′Ascq, France) in mold and frozen in liquid nitrogen. 8 μm thin cryosections were mounted on StarFrost slides (catalog # VS1117, Waldemar Knittel Glasbearbeitungs, Braunschweig, Germany).
Sections or cells were washed with PBS 1× and shortly fixated with Formalin 10% solution for 5 minutes and washed three times with PBS 1×. […] The prevalence of apoptotic nuclei was expressed as the ratio of TUNEL-positive nuclei and DAPI-stained nuclei in three different areas of the ONL per experiment. […]

Bbs12−/− mouse retina = experiment: Retinal histology (ONL thickness, cilia) of treated Bbs12−/− mice; format: in vivo; conditions: for ONL layer thickness: 4 weeks of age, 37 μm for untreated retinas
Description: The Bbs12^−/− mice were generated as previously described. Bbs12^−/− mice were obtained by crossing heterozygote animals. Mice were housed in humidity and temperature controlled rooms on a 12-hour light/12-hour dark cycle with food ad libitum and water. For anti-apoptotic treatments, animals were treated with eye drops from 2 to 4 weeks of age once a day; the eye drops contain GBZ 7.5 μM and Caspase Inhibitor 500 μM for the left eye and contain 5% DMSO for the right eye. […] Eye drop treatment was achieved from 2 to 4 weeks of age and systemic treatments were achieved from 3 to 4 weeks of age. At 4 weeks of age, electrophysiological analyses were performed and the retinas were harvested for molecular analysis. Sections or cells were washed with PBS 1× and shortly fixated with Formalin 10% solution for 5 minutes and washed three times with PBS 1×. The sections were then pre-incubated with Teng-T (10 mM TrisHCl (pH=7.6), 5 mM EDTA (catalog # E5768, Sigma-Aldrich), 150 mM NaCl, 0.25% gelatin (catalog # G9391, Sigma-Aldrich), 0.05% Tween-20)/10% normal goat serum (catalog #PCN5000, Gibco) for 30 min, followed by an overnight incubation with the primary antibody diluted in Teng-T/10% NGS at 4° C. Slides were then washed with PBS 1× and incubated with the indicated secondary antibody in Teng-T/10% NGS for 1 hour at room temperature. Slides were washed in PBS 1× and nuclear staining was performed with DAPI (catalog # D1306, Invitrogen). Slides were mounted with Immumount (catalog #9990402, ThermoFisher). TUNEL assays were performed using In Situ Cell Death Detection Kit (catalog #11684795910, Roche) according to suppliers' protocol. The prevalence of apoptotic nuclei was expressed as the ratio of TUNEL-positive nuclei and DAPI-stained nuclei in three different areas of the ONL per experiment. All results shown are representative of at least 3 separate experiments.

[2] = tested on: eIF2α phosphorylation and BiP; experiment: Western blot of phosphorylated eIF2α and BiP in retinas of treated Bbs12−/− mice; format: in vivo, mouse
Description: The Bbs12^-/- mice were generated as previously described. Bbs12^-/- mice were obtained by crossing heterozygote animals. Mice were housed in humidity and temperature controlled rooms on a 12-hour light/12-hour dark cycle with food ad libitum and water. For anti-apoptotic treatments, animals were treated with eye drops from 2 to 4 weeks of age once a day; the eye drops contain GBZ 7.5 μM and Caspase Inhibitor 500 μM for the left eye and contain 5% DMSO for the right eye. […] Eye drop treatment was achieved from 2 to 4 weeks of age and systemic treatments were achieved from 3 to 4 weeks of age. At 4 weeks of age, electrophysiological analyses were performed and the retinas were harvested for molecular analysis. […] After retina dissociation using dounce homogenizer, samples were sonicated and protein concentration was determined using Bradford reagent (catalog #500-0006, BioRad). For Western blotting, 80 μg of whole protein extracts were loaded per lane and Ponceau S staining was used as loading control for signal quantification. […] Signal quantification was assed using QuantityOne software from BioRad.

SMILES	apoptotic rate (proportion of apoptotic photoreceptor nucleus) [1] [%]	protective effect on photoreceptors, overall in vivo (electrophysiological and histological analysis) (Bbs12−/− mouse retina)	ONL layer thickness (Bbs12−/− mouse retina) [μm]	phosphorylated status of eIF2α [2]	apoptotic rate ([1]; shCtl explants, 2 mM VPA, TUNEL-positive nuclei/DAPI in ONL) [%]	BiP protein level [2]
N=C(N)N/N=C/c1c(Cl)cccc1Cl [GBZ, guanabenz]	12	efficient to reduce photoreceptor apoptosis	45	increased		
CCCC(CCC)C(=O)O [VPA, valproic acid]	17	efficient to reduce photoreceptor apoptosis	44		13	increased
